Type in all cases: cell-based
The subject of assay [1] is ES-2. The assay is described as follows: Cell proliferation assay. The settings on record: Homo sapiens.
For the next assay, the system named is OAW28. The assay is described as follows: Cell proliferation assay. The conditions noted are these: Homo sapiens, OAW-28.
In another assay the test system is A2780. The assay is described as follows: Senescence quantification (SA-βGal). The conditions noted are these: Compound 42 50, 100, or 150 nM, 96 hours, compared to control (DMSO). On the procedure:
(§1) Senescence was quantified in ovarian cell lines A2780, OAW42, and ES-2. Cell lines A2780 has no cyclin D pathway mutations and has wt Rb and Parkin expression. Cell line OAW42 has increased CDK4 and increased CDK6 with wt Rb and Parkin expression. Cell line ES-2 has increased cyclin D and increased mutant […] with wt Rb and Parkin expression.
(§2) Day 1: 96 well plate was seeded with 4000 cells/well and incubated for 24 hours at 37° C.
(§3) Day 2: Compound 42 (50, 100, or 150 nM) or palbociclib (1 μM) as positive control were added to the wells and the plate was incubated for 96 hours at 37° C.
(§4) Day 6: Senescence cells histochemical Staining Kit (Sigma) was used. The growth medium form the cells were aspirated then washed twice with fresh […]. […] 100 μL filtered Fixation Buffer was added per well and the plate was incubated for 6-7 minutes at room temperature. Then, the cells were rinsed 3 times with PBS. 50 μL of the Staining Mixture was added per well and incubated at 37° C. overnight without CO2 (staining is pH dependent). After staining, the Staining Mixture was removed, PBS and Hoechst dye (1 μg/mL) were added. Ten images were taken with Epifluorescence Microscope using the blue filter and 10 images were taken in the brightfield. The images were used to count the total cell number—the positive blue cells were counted in the bright field. The percentage of cells expressing β-galactosidase was calculated.
(§5) Method 1: Mammalian β-Galactosidase Assay Kit (Thermo Scientific) was used. […] The cells were washed once with PBS. 100 μL of the β-Galactosidase Assay Reagent was added to each well and the plate was covered and incubated for 30 minutes at 37° C. without CO2. The absorbance was measured at 405 nm. If no change was observed, the plate was incubated for an extra 30 minutes.
(§6) Method 2: Assay of a portion of the lysate. The cells were washed once with PBS. 50 μL of the M-PER Reagent was added to each well and the plate was incubated at room temperature for […]. 25 μL of lysate was removed and use it for Protein Quantification (BCA). The date was normalize by protein content.

Assay [2] deals with ES-2. Briefly: Senescence quantification (SA-βGal). The conditions noted are these: Compound 42 50, 100, or 150 nM, 96 hours, compared to control (DMSO). How it is done:
as §1, §2, §3, §4, §5, §6

The next assay concerns OAW42. The assay is described as follows: Senescence quantification (SA-βGal). The conditions noted are these: Compound 42 50, 100, or 150 nM, 96 hours, compared to control (DMSO). How it is done:
as §1, §2, §3, §4, §5, §6

A further assay deals with cyclin D1. Briefly: Western blot of cellular biomarker cyclin D1. On the procedure: (§7) Various cancer cells lines were treated with Compound 42 or palbociclib (control) to measure the expression of cyclin D, cyclin E, pRb, and Rb.
(§8) Day 1: 6 well plate was seeded with 3×10^5 cells/well with a final volume of 3 mL and incubated for 24 hours at 37° C.
(§9) Day 2: The media was removed and Compound 42 (see below for dose) or palbociclib (1 μM) as positive control were added to the wells the desired concentration in cell culture media, giving a final volume of 3 mL per well. The plate was incubated for 24 hours at 37° C. (or desired period).
(§10) Day 3: The media was removed from wells and washed ×3 with PBS. 500 μl of trypsin was added to the wells and incubate until cells detach. 500 μl media was added to neutralise trypsin, transferred to 2 ml Eppendorfs, and centrifuged (1500 RPM for 5 minutes). While spinning, the wells were washed with 1 mL PBS to collect any remaining cells. This wash was used to centrifuged cell pellet. After the first spin, the supernatant was discarded and the pellet was washed with PBS collected from the previous step. The centrifugation step was repeated and the supernatant was discarded and the pellet wash again with fresh PBS. The centrifugation and wash with PBS was repeated one more time. RIPA cell lysate buffer was prepared and Protease Inhibitor Cocktail was included. The supernatant was discarded and […] RIPA cell lysate buffer was added to the pellet. The protein concentration was determined using the BCA assay kit.
(§11) Day 4: Western blot analysis was performed. 4-12% Bis-Tris gel and MOPS running buffer was used. The running buffer was made to sufficient volume of running buffer to 1× concentration. 20 μg protein (v/v loading & reducing buffer) of each sample was loaded into wells. Some proteins may require more, or less, protein loaded. The gel was ran at standard settings 200 V for 45 minutes. Once gel has run, the gel was transferred for 7 minutes using the iBlot Blotting System. The membrane was blocked using 5% non-fat powdered milk* made up in 1×TBS containing 0.1% Tween (TBS-T and incubated for 1 hr with gentle rocking. The observation from the Western blot analysis is quantified in FIGS. 2-7D.
Cell lines A2780 (ovarian cell line with no cyclin D pathway mutations), ES-2 (ovarian cell line with cyclin D amplification, p53 mutation), OAW42, and SW626 were treated with DMSO (control), 250 nM of Compound 42, or 1 μM of Palbociclib. Treated cells were incubated for 24 hours and data represented in FIGS. 2-5 represents n=3.
(A western blot detects proteins with antibodies after separation by electrophoresis.)

The subject of the next assay is cyclin E1. Briefly: Western blot of cellular biomarker cyclin E1. The settings on record: 250 nM Compound 42, 24 hours, compared to palbociclib 1 μM. On the procedure: as §7, §8, §9, §10
as §11, with “Once gel has run, the gel was transferred for 7 minutes using the iBlot Blotting System.” left out, “2-7D. […]” for “2-7D.”

Another assay has as its system cyclin E. Briefly: Western blot of cellular biomarker cyclin E. The conditions noted are these: JEKO-1; 500 nM Compound 42; 48 hours; compared to palbociclib 1 μM. How it is done: as §7, §8, §9
Day 3: The media was removed from wells and washed ×3 with PBS. 500 μl of trypsin was added to the wells and incubate until cells detach. 500 μl media was added to neutralise trypsin, transferred to 2 ml Eppendorfs, and centrifuged (1500 RPM for 5 minutes). While spinning, the wells were washed with 1 mL PBS to collect any remaining cells. This wash was used to centrifuged cell pellet. After the first spin, the supernatant was discarded and the pellet was washed with PBS collected from the previous step. […] The protein concentration was determined using the BCA assay kit.
Day 4: Western blot analysis was performed. […] The membrane was blocked using 5% non-fat powdered milk* made up in 1×TBS containing 0.1% Tween (TBS-T and incubated for 1 hr with gentle rocking. The observation from the Western blot analysis is quantified in FIGS. 2-7D. […]

For `Cc1ccccc1C(=O)Nc1nc(NC(=O)c2ccccc2C)n(-c2ccc(OC(F)(F)F)cc2)n1` [Compound 42, N,N′-(1-(4-(trifluoromethoxy)phenyl)-1H-1,2,4-triazole-3,5-diyl)bis(2-methylbenzamide)], the IC50 amounted to 57 nM in the assay with ES-2 [1] (Ovarian ES-2, overexpression of Cyclin D, loss of p16 (mutant p53)) and 140 nM in the assay with OAW28 (Ovarian OAW28, overexpression of Cyclin D, loss of p16 (mutant p53), loss of RB). Further, the EC50 with ES-2 [1] (Table 7a, Ovarian (ES-2)) came to 42 nM; in the assay on OAW28 (Table 7a, Ovarian (OAW28)) it was 114 nM. Moreover, the “senescence (SA-βGal levels)” value with A2780, with ES-2 [2] and in the assay with OAW42 was “induced senescence” throughout. Further, the “Cyclin D1 expression” value in the assay with cyclin D1 (A2780, 250 nM Compound 42, 1 μM Palbociclib, 24 hours) is reported as “reduction of cyclin D1 expressions”; with cyclin D1 (ES-2, 250 nM Compound 42, 1 μM Palbociclib, 24 hours), “reduction of cyclin D1 expressions”; in the assay on cyclin D1 (HT116, with increasing concentration) it was “reduction”; in the assay with cyclin D1 (OAW42, 250 nM Compound 42, 1 μM Palbociclib, 24 hours), “reduction of cyclin D1 expressions”; with cyclin D1 (SW626, 250 nM Compound 42, 1 μM Palbociclib, 24 hours), “reduction of cyclin D1 expressions”. Further, the “cyclin E1 expression” value is reported as “reduction of cyclin E1 expressions” in the assay on cyclin E1 (A2780), “reduction of cyclin E1 expressions” with cyclin E1 (ES-2) and “some reduction of cyclin E1 expression” in the assay with cyclin E1 (OAW42). For the same compound, in the assay with cyclin E, the “cyclin E expression” value was “reduction of cyclin E and cyclin D expression”.

Broadly, the IC50 is the concentration that gives 50% inhibition. Read a low IC50 as greater potency. The term EC50 denotes the concentration that produces a half-maximal response. High values mean weaker potency, low ones greater potency.

Values taken from US20210244712A1, “METHODS FOR TREATING PATIENTS WITH CANCER HAVING DEFECTS IN CYCLIN D REGULATION” (NysnoBio Ireland DAC, priority 2018, published 2021).
